As a reminder, the IC50 is the concentration that gives 50% inhibition.

Each structure is given as a SMILES string.

Assay [1] relates to eIF2α in HEK293-EGFP-eIF2α cells. Kind of assay: PERK Cellular Assay (HEK293-EGFP-eIF2α cells, tunicamycin-induced ER stress, TR-FRET). It is filed as cell-based. Particulars: tunicamycin 2 hours. As for the experimental part: Stable cell lines were created in HEK293 cells using lentiviral particles harboring an expression vector for GFP-eIF2α. Cells were selected using puromycin and enriched using fluorescence activated cell sorting against GFP. HEK293-EGFP-eIF2α cells were plated at 5000 cells/well in 384-well assay plates and incubated overnight at 37° C., 5% CO2. Inhibitor compounds were added to the wells by Echo acoustic dispensing and incubated for 30 minutes at 37° C., 5% CO2 prior to induction of ER stress by addition of tunicamycin to […] for 2 hours. Cells were lysed and TR-FRET was measured in an EnVision plate reader (PerkinElmer). FRET ratio data was normalized to signal from lysates treated with DMSO vehicle control and plotted as percent inhibition against 10-point; 3-fold dilution series of inhibitors. IC50 values were calculated using 4-parameter logistical fitting in XLFit.

For assay [2], the target named is Recombinant human EIF2AK3 (PERK) catalytic domain (amino acids 536-1116) (Homo sapiens (Human), UniProt Q9NZJ5). Kind of assay: PERK In Vitro Activity Assay (isolated), TR-FRET kinase assay. Particulars: isolated PERK enzyme, 1.5 μM ATP, read-out: Biochemical IC50. From the text: PERK In Vitro Activity Assay (isolated):
In vitro Inhibition of PERK Enzyme Activity (isolated) Recombinant human EIF2AK2 (PKR) catalytic domain (amino acids 252-551), EIF2AK3 (PERK) catalytic domain (amino acids 536-1116), GFP-eIF2a substrate, and Terbium-labelled phospho-eIF2a antibody is obtained (Invitrogen, Carlsbad, CA).
Express and purify HIS-SUMO-GCN2 catalytic domain (amino acids 584-1019) from E. coli. Perform TR-FRET kinase assays in the absence or presence of inhibitors in a reaction buffer consisting of 50 mM HEPES, pH 7.5, 10 mM MgCb, 1.0 mM EGTA, and 0.01% Brij-35, and 100-200 nM GFP-eIF2a substrate. […] Add test compound, initiate the reaction by addition of enzyme, and incubate at room temperature for 45 minutes. Stop the reaction by addition of EDTA to a final concentration of 10 mM, add Terbium-labelled phospho-eIF2a antibody at a final concentration of 2 nM, and incubate for 90 minutes. Monitor the resulting fluorescence in an EnVison® Multilabel reader (PerkinElmer, Waltham, MA). Determine TR-FRET ratios and the resulting IC50 values using a 4-parameter nonlinear logistic equation as shown: Y=(A+((B−A)/(1+(C/x)AD)))) where, Y=% specific inhibition, A=Bottom of the curve, B=Top of the curve, C=absolute IC50 (concentration causing 50% inhibition), and D=hill slope.

Sequence of Recombinant human EIF2AK3 (PERK) catalytic domain (amino acids 536-1116) (Q9NZJ5 536-1116): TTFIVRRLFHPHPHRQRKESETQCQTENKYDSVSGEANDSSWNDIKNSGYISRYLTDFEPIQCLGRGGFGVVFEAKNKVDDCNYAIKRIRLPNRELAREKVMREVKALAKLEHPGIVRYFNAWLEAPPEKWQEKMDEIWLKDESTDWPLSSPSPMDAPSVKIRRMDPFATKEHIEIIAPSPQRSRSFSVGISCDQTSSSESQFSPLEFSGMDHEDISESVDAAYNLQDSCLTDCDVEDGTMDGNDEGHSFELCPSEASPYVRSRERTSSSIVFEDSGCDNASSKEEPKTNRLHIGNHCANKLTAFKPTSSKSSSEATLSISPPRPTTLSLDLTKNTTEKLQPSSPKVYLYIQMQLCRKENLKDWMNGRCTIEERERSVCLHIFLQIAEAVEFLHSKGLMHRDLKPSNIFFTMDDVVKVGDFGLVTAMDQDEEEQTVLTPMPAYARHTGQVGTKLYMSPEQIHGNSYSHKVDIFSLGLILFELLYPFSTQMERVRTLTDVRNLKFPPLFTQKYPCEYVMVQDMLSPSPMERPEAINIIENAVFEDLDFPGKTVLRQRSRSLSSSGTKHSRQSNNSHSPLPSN

Regarding `[2H]C([2H])([2H])c1nc(-c2cnc(NC(=O)C(O)c3cccc(F)c3)cc2C)c2c(N)nc(C)cn12` (stereo not drawn) [Example 179, N-[5-[8-amino-6-methyl-3-(trideuteriomethyl)imidazo[1,5-a]pyrazin-1-yl]-4-methyl-2-pyridyl]-2-(3-fluorophenyl)-2-hydroxy-acetamide], the IC50 in assay [1] lay within 251 to 500 nM; in assay [2], 1 to 25 nM.
In the same order, the values of `[2H]C([2H])([2H])c1nc(-c2ccc(NC(=O)C(O)c3cccc(Cl)c3)cc2F)c2c(N)nc(C)cn12` (stereo not drawn) [Example 80, N-[4-[8-amino-6-methyl-3-(trideuteriomethyl)imidazo[1,5-a]pyrazin-1-yl]-3-fluoro-phenyl]-2-(3-chlorophenyl)-2-hydroxy-acetamide] are 1 to 25 nM and 1 to 25 nM.
The corresponding values for `[2H]C([2H])([2H])c1nc(-c2ccc(NC(=O)C(O)c3cc(F)cc(C(F)(F)F)c3)cc2C)c2c(N)ncc(C)n12` (stereo not drawn) [Example 55, N-[4-[8-amino-5-methyl-3-(trideuteriomethyl)imidazo[1,5-a]pyrazin-1-yl]-3-methyl-phenyl]-2-[3-fluoro-5-(trifluoromethyl)phenyl]-2-hydroxy-acetamide] are 101 to 250 nM and 1 to 25 nM.
Consider `Cc1cnc(N)c2c(-c3ccc(NC(=O)C(O)c4cccc(Cl)c4)cc3F)nc(C)n12` (stereo not drawn) [Example 78, N-(4-(8-amino-3,5-dimethylimidazo [1,5-a]pyrazin-1-yl)-3-fluorophenyl)-2-(3-chlorophenyl)-2-hydroxy-acetamide], for which the IC50 in assay [1] (2 h) and in assay [2] was 1 to 25 nM each time.
`[2H]C([2H])([2H])c1nc(-c2ccc(NC(=O)C(O)c3cc(F)cc(F)c3)c(F)c2F)c2c(N)ncc(Cl)n12` (stereo not drawn) [Example 156, N-[4-[8-amino-5-chloro-3-(trideuteriomethyl)imidazo[1,5-a]pyrazin-1-yl]-2,3-difluoro-phenyl]-2-(3,5-difluorophenyl)-2-hydroxy-acetamide]: the IC50 in assay [1] and in assay [2] was 1 to 25 nM each time.
For the compound `[2H]C([2H])([2H])c1nc(-c2ccc(NC(=O)C(O)c3cc(F)cc(C(F)(F)F)c3)c(F)c2F)c2c(N)ncc(C)n12` (stereo not drawn) [Example 161, N-[4-[8-amino-5-methyl-3-(trideuteriomethyl)imidazo[1,5-a]pyrazin-1-yl]-2,3-difluoro-phenyl]-2-[3-fluoro-5-(trifluoromethyl)phenyl]-2-hydroxy-acetamide], the IC50 in assay [1] is 101 to 250 nM; in assay [2], 1 to 25 nM.
The corresponding values for `[2H]C([2H])([2H])c1nc(-c2cnc(NC(=O)C(O)c3cccc(F)c3)cc2C)c2c(N)ncc(C)n12` (stereo not drawn) [Example 180, N-[5-[8-amino-5-methyl-3-(trideuteriomethyl)imidazo[1,5-a]pyrazin-1-yl]-4-methyl-2-pyridyl]-2-(3-fluorophenyl)-2-hydroxy-acetamide] are 501 to 1000 nM and 26 to 50 nM.
The corresponding values for `Cc1cn2c(C)nc(-c3ccc(NC(=O)C(O)c4cccc(F)c4)cc3C)c2c(N)n1` (single isomer, unassigned) [Example 4, N-(4-(8-amino-3,6-dimethylimidazo[1,5-a]pyrazin-1-yl)-3-methylphenyl)-2-(3-fluorophenyl)-2-hydroxyacetamide] are 251 to 500 nM and 51 to 100 nM.
In the same order, the values of `[2H]C([2H])([2H])c1nc(-c2ccc(NC(=O)C(O)c3cc(F)cc(C(F)(F)F)c3)cc2C)c2c(N)ncc(Cl)n12` (stereo not drawn) [Example 56, N-[4-[8-amino-5-chloro-3-(trideuteriomethyl)imidazo[1,5-a]pyrazin-1-yl]-3-methyl-phenyl]-2-[3-fluoro-5-(trifluoromethyl)phenyl]-2-hydroxy-acetamide] are 1 to 25 nM and 1 to 25 nM.
In the case of `Cc1cnc(N)c2c(-c3ccc(NC(=O)C(O)c4cccc(F)c4)cc3)nc(C)n12` (stereo not drawn) [Example 68, N-(4-(8-amino-3,5-dimethylimidazo [1,5-a]pyrazin-1-yl)phenyl)-2-(3-fluorophenyl)-2-hydroxyacetamide], the IC50 is 101 to 250 nM in assay [1] and 1 to 25 nM in assay [2].
The corresponding values for `Cc1cc(NC(=O)C(O)c2cc(F)cc(C(F)(F)F)c2)ccc1-c1nc(C)n2c(C)cnc(N)c12` (stereo not drawn) [Example 58, N-(4-(8-amino-3,5-dimethylimidazo [1,5-a]pyrazin-1-yl)-3-methylphenyl)-2-(3-fluoro-5-(trifluoromethyl)phenyl)-2-hydroxyacetamide] are 26 to 50 nM and 1 to 25 nM.
In the case of `[2H]C([2H])([2H])c1nc(-c2ccc(NC(=O)C(O)c3cccc(C(F)(F)F)c3)cc2C)c2c(N)ncc(C(F)(F)F)n12` (stereo not drawn) [Example 21, N-[4-[8-amino-3-(trideuteriomethyl)-5-(trifluoromethyl)imidazo[1,5-a]pyrazin-1-yl]-3-methyl-phenyl]-2-hydroxy-2-[3-(trifluoromethyl)phenyl]acetamide], the IC50 in assay [1] fell in the range of 501 to 1000 nM; in assay [2], 51 to 100 nM.
The corresponding values for `[2H]C([2H])([2H])c1nc(-c2ccc(NC(=O)C(O)c3cc(F)cc(C(F)(F)F)c3)c(F)c2F)c2c(N)ncc(Cl)n12` (stereo not drawn) [Example 164, N-[4-[8-amino-5-chloro-3-(trideuteriomethyl)imidazo[1,5-a]pyrazin-1-yl]-2,3-difluoro-phenyl]-2-[3-fluoro-5-(trifluoromethyl)phenyl]-2-hydroxy-acetamide] are 1 to 25 nM and 1 to 25 nM.
In the same order, the values of `[2H]C([2H])([2H])c1nc(-c2ccc(NC(=O)C(O)c3cccc(F)c3)cc2F)c2c(N)ncc(C(F)(F)F)n12` (stereo not drawn) [Example 76, N-[4-[8-amino-3-(trideuteriomethyl)-5-(trifluoromethyl)imidazo[1,5-a]pyrazin-1-yl]-3-fluoro-phenyl]-2-(3-fluorophenyl)-2-hydroxy-acetamide] are 1 to 25 nM and 1 to 25 nM.
The corresponding values for `[2H]C([2H])([2H])c1nc(-c2ccc(NC(=O)C(O)c3cccc(F)c3)c(F)c2F)c2c(N)ncc(C)n12` (stereo not drawn) [Example 133, N-[4-[8-amino-5-methyl-3-(trideuteriomethyl)imidazo[1,5-a]pyrazin-1-yl]-2,3-difluoro-phenyl]-2-(3-fluoro-phenyl)-2-hydroxy-acetamide] are 101 to 250 nM and 1 to 25 nM.
`[2H]C([2H])([2H])c1nc(-c2ccc(NC(=O)C(O)c3cc(F)cc(C(F)(F)F)c3)c(F)c2F)c2c(N)ncc(C)n12` (stereo not drawn) [Example 160, N-[4-[8-amino-5-methyl-3-(trideuteriomethyl)imidazo[1,5-a]pyrazin-1-yl]-2,3-difluoro-phenyl]-2-[3-fluoro-5-(trifluoromethyl)phenyl]-2-hydroxy-acetamide]: the IC50 in assay [1] and in assay [2] was 1 to 25 nM each time.
As for `Cc1cnc(N)c2c(-c3ccc(NC(=O)C(O)c4cccc(C(F)(F)F)c4)cc3F)nc(C)n12` (stereo not drawn) [Example 93, N-(4-(8-amino-3,5-dimethylimidazo [1,5-a]pyrazin-1-yl)-3-fluoro-phenyl)-2-hydroxy-2-(3-(trifluoromethyl)phenyl)acetamide], the IC50 was in the range of 51 to 100 nM in assay [1] and 1 to 25 nM in assay [2].
In the same order, the values of `Cc1cn2c(C)nc(-c3ccc(NC(=O)C(O)c4cccc(F)c4)c(F)c3F)c2c(N)n1` (stereo not drawn) [Example 129, N-(4-(8-amino-3,6-dimethyl-imidazo[1,5-a]pyrazin-1-yl)-2,3-difluoro-phenyl)-2-(3-fluorophenyl)-2-hydroxyacetamide] are over 5000 nM and 501 to 1000 nM.
